Patent publication US12692233B2, “Anthelmintic compounds comprising a pyridine structure” (Intervet Inc., priority 2020, dated 2026)

Tests used:
Ascaridia galli = test: In vitro assay Ascaridia galli larval stage 3; format: cell-based; conditions: larval stage 3, 20 larvae per well, microscopic examination, read-out: MEC (minimum effective concentration) against Ascaridia galli L3
From the text: (§1) […] galli (intestinal roundworm of chicken), larval stage 3 (“L3”); and Oesophagostumum dentatum (nodular worm of swine), larval stages 3 and 4 (respectively “L3” and “L4”) where suspended in a nutrient medium and distributed to 96 well plates with 20 larvae per well. The wells were spiked DMSO solutions of the compounds with declining concentration.

Haemonchus contortus = test: In vitro assay Haemonchus contortus, motility of exsheathed L3 larvae; format: cell-based; conditions: 168 h, 7 days incubation, motility reduced by 50% with respect to positive control ivermectin, read-out: ED50 against Haemonchus contortus
Experimental: Solutions of compounds with declining concentrations in DMSO were prepared, diluted with nutrient medium and distributed to 96 well microtiterplates. […]3 larvae of Haemonchus contortus were incubated for 20 min at 37° C. in a water bath, separated by centrifugation and added to the wells with 300 Larvae/well. After incubation for 7 days motility was assessed by automated microscopy. Ivermectin was used as positive control, DMSO as negative control and ED50 values were calculated which represent the concentration for an individual compound that reduces motility by 50% with respect to the […].

Dirofilaria immitis = test: In vitro assay Dirofilaria immitis L1 (microfilaria), motility; format: cell-based; conditions: 72 h, 3 days incubation, reduction in motility vs DMSO
Experimental: (§2) Approximately 500 D. immitis microfilaria were added to a microtiter plate containing a nutrient medium and the test compound in DMSO at varying concentrations. After incubation for 3 days, activity was evaluated as reduction in motility as compared to DMSO as negative control. Compounds were tested in duplicates. Based on the concentration response curves EC50 values were calculated.

Acanthocheilonema viteae = test: In vitro assay Acanthocheilonema viteae L1 (microfilaria), motility; format: cell-based; conditions: 72 h, 3 days incubation, reduction in motility vs DMSO
Experimental: as §2, with “A. viteae” for “D. immitis”

[1] = biological target: T1, human Maxi K channel (BK channel) (Homo sapiens, UniProt Q12791); test: Agonistic activity at the human Maxi K channel (BK channel), FLIPR membrane potential in CHO K1 cells; format: cell-based; conditions: CHO K1 cells stably transfected with KCNMA1 and beta1 (KCNMB1) subunits, membrane potential dye
T1 construct: expressed in transfected cells; host or cells: CHO K1
T1 sequence (Q12791 1-1178 isoform Q12791-5): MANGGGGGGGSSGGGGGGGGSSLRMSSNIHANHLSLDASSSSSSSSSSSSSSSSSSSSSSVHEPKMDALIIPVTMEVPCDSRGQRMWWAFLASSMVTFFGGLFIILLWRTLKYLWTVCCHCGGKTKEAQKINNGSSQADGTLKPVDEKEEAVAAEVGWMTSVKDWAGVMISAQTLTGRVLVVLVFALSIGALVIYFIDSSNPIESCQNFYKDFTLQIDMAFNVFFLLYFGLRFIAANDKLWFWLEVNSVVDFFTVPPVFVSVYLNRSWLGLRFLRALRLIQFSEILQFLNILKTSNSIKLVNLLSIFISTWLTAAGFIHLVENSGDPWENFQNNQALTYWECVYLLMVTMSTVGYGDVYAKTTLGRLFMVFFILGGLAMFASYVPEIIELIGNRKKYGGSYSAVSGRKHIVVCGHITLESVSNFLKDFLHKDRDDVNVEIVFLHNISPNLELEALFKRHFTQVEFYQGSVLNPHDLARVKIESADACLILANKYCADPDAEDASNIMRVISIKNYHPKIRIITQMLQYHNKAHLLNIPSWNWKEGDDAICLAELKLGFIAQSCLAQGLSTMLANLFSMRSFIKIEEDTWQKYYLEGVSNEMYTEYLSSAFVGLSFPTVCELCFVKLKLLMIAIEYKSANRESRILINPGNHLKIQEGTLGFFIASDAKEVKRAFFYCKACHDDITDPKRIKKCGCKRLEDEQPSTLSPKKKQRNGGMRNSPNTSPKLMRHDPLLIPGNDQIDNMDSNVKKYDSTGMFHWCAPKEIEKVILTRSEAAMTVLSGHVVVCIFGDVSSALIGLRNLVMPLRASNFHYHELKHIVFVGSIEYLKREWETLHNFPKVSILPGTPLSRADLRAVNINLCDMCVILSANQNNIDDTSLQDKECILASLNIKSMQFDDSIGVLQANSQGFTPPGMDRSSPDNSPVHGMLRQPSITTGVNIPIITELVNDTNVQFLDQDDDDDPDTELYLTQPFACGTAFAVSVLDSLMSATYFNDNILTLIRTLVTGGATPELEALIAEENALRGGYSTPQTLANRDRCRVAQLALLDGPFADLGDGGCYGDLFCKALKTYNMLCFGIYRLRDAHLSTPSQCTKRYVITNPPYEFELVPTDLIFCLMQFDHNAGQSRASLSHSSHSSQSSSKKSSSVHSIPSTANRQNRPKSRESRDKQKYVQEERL
T1 sequence (Q16558 whole entry partner): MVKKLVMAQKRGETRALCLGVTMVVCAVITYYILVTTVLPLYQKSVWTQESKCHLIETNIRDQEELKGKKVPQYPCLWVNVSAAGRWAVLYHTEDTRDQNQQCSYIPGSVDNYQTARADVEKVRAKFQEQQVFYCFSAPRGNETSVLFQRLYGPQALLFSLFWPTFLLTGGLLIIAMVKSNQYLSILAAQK
From the text: A CHO K1 cell line was stably transfected with the KCNMA1 (KCa1.1, U11058) and beta1 (KCNMB1) subunits of the human Maxi K channel (Ponte et al, Molecular Pharmacology 2012, 81(4), 567-577).
The complete measurement takes 150 s.

C. elegans Slo-1a = C. elegans Slo-1a (Caenorhabditis elegans, UniProt Q95V25); test: Agonistic activity at C. elegans Slo-1a, FLIPR membrane potential in CHO K1 cells; conditions: EC50 agonistic activity at C. elegans Slo-1a, CHO K1 cells stably transfected with slo-1a, membrane potential dye
Sequence of C. elegans Slo-1a (Q95V25 whole entry): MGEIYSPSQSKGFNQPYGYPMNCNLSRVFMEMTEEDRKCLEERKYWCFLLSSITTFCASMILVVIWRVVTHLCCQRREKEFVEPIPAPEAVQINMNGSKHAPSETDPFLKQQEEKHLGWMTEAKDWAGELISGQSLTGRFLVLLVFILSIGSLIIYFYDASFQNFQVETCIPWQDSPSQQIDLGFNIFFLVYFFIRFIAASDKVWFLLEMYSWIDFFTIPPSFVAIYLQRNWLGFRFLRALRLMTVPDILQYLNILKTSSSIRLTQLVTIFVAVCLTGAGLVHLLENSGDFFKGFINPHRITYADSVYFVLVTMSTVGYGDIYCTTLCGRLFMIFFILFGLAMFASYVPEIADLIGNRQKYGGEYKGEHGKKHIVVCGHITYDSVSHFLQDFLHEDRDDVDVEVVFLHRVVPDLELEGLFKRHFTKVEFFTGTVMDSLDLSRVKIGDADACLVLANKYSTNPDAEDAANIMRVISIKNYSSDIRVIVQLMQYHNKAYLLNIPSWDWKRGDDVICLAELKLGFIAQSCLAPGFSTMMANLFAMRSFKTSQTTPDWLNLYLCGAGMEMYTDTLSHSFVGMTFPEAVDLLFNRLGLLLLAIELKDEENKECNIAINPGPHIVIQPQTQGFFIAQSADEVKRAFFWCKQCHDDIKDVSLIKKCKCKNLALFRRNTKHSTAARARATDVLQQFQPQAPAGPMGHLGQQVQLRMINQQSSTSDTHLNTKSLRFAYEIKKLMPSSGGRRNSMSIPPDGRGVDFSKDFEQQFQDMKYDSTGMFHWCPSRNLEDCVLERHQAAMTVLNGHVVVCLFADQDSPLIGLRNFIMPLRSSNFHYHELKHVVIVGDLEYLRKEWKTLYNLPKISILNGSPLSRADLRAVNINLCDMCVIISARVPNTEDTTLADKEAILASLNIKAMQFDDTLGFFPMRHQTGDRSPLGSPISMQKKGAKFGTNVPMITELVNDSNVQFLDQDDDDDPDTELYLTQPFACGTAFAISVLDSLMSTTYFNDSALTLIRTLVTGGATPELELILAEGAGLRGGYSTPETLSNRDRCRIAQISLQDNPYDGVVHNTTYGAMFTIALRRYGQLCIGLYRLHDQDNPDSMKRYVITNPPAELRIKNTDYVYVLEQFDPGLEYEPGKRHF
Experimental: A CHO K1 cell line stably transfected with the Caenorhabditis elegans slo-1a (accession no Y51A2D.19a) was established. Cells were seeded in microtiter plates (black 384-well MTP, clear bottom) in a concentration of 10,000 cells/well in 25 μl medium and cultured for 20 to 24 hours at 37° C. and 5% CO2. After incubation, 25 μl of FMP-dye Blue-Tyrode's was added to each well and incubated at room temperature for 30 min. Ten minutes after addition of 12.5 μl compound solution, the plates are transferred to the FLIPR for measurement.
For the membrane potential measurements, the plates were placed in the FLIPR Penta (Molecular Devices). The baseline measurement of the fluorescence was stared for 20 sec (Exc. 510-545 nm, Emm. 565-625 nm). Potential channel opening measurement was started by addition of 25 μl of KCl-Tyrode (final assay concentration of the KCl-Tyrode: 70 mM KCl, 2 mM CaCl2, 1 mM MgCl2, 0.8 mM NaH2PO4, 5 mM Glucose, 28 mM Hepes, pH 7.4, including the voltage sensitive dye). The complete measurement takes 150 s.
EC50 values were determined in triplicate utilizing compound dilution series. The data were determined at least in two independent tests. The data were proceeded by using the ActivityBase XE Runner software (IDBS) for curve fitting and calculation of the half-maximal effective concentration.

Oesophagostumum dentatum [2] = test: In vitro assay Oesophagostumum dentatum larval stage 4; format: cell-based; conditions: larval stage 4, 20 larvae per well, microscopic examination; read-out: MEC (minimum effective concentration) against Oesophagostumum dentatum L4
From the text: as §1

Oesophagostumum dentatum [3] = test: In vitro assay Oesophagostumum dentatum larval stage 3; format: cell-based; conditions: larval stage 3, 20 larvae per well, microscopic examination; read-out: MEC (minimum effective concentration) against Oesophagostumum dentatum L3
From the text: as §1

| SMILES | minimal effective concentration (Ascaridia galli) | EC50 (Haemonchus contortus) | EC50 (Dirofilaria immitis) | EC50 (Acanthocheilonema viteae) | EC50 [1] | EC50 (C. elegans Slo-1a) | minimal effective concentration (Oesophagostumum dentatum [2]) | minimal effective concentration (Oesophagostumum dentatum [3]) |
| --- | --- | --- | --- | --- | --- | --- | --- | --- |
| CCOc1cc(Sc2cccc(Cl)c2Cl)ncc1C(=O)N[C@H]1CCc2ccccc21 [Compound 72] | ≤ 50 µM | < 50 µM | < 10 µM | < 10 µM | > 30 µM | < 10 µM | – | – |
| CN(C)c1cc(Oc2cccc(Cl)c2Cl)ncc1C(=O)N[C@H]1CCc2ccccc21 [Compound 35] | – | < 50 µM | – | – | > 30 µM | < 1 µM | – | – |
| CN(C)c1cc(Sc2cc(Cl)cc(Cl)c2)ncc1C(=O)N[C@@H]1CCOc2ccccc21 [Compound 18] | ≤ 50 µM | < 50 µM | < 10 µM | – | > 30 µM | – | – | – |
| COc1cc(Sc2cc(Cl)cc(Cl)c2)ncc1C(=O)N[C@H]1CCCc2ccccc21 [Compound 82] | – | < 50 µM | < 10 µM | < 10 µM | > 30 µM | < 10 µM | ≤ 50 µM | – |
| CSc1cc(Sc2cccc(Cl)c2Cl)ncc1C(=O)N[C@H]1CCOc2ccccc21 [Compound 52] | ≤ 50 µM | < 50 µM | – | – | > 30 µM | < 10 µM | – | ≤ 50 µM |
| CN(C)c1cc(Oc2cccc(Cl)c2Cl)ncc1C(=O)Nc1cccc2ccccc12 [Compound 36] | – | – | < 10 µM | < 10 µM | > 30 µM | – | ≤ 50 µM | ≤ 50 µM |
| CSc1cc(Sc2cc(Cl)cc(Cl)c2)ncc1C(=O)N[C@@H]1CCOc2ccccc21 [Compound 55] | – | < 50 µM | – | – | > 30 µM | – | – | – |
| O=C(N[C@H]1CCCc2ccccc21)c1cnc(Sc2cccc(Cl)c2Cl)cc1N1CCOCC1 [Compound 21] | – | < 50 µM | – | – | > 30 µM | < 1 µM | – | – |
| CCSc1cc(Sc2cc(Cl)cc(Cl)c2)ncc1C(=O)N[C@H]1CCc2ccccc21 [Compound 73] | – | < 50 µM | – | – | > 30 µM | – | – | ≤ 50 µM |
| CN(C)c1cc(Oc2cccc(Cl)c2Cl)ncc1C(=O)N[C@H]1CCCc2ccccc21 [Compound 34] | – | < 50 µM | – | – | > 30 µM | < 1 µM | – | – |
| CN(C)c1cc(Sc2cccc(Cl)c2Cl)ncc1C(=O)N[C@@H]1CCOc2ccccc21 [Compound 39] | – | – | < 10 µM | < 10 µM | > 30 µM | – | – | ≤ 50 µM |
